# Results from US20060041123A1, “Antibacterial agents” (priority 2002, published 2006).
# Assay: Antimicrobial activity assay: whole-cell MIC by broth microdilution (NCCLS M7-A6)
# Format: cell-based
# Settings: versus all the organisms named above (S. aureus WCUH29, S. pneumoniae 1629, S. pyogenes CN 10, E. faecalis 2, H. influenzae NEMC1, E. coli 7623, M. catarrhalis Ravasio); read-out: MIC
# Procedure, shortened: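 Broth microdilution per NCCLS M7-A6, with serial two-fold compound dilutions from 0.016 to 16 mcg/mL. MIC read as the lowest concentration inhibiting visible growth, using a mirror reader.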
row,Compound,MIC
1,"COc1ccc2ncc(Br)c(CCN3CCC(NCc4cc5c(cn4)OCCO5)CC3)c2c1.Cl.Cl [Example 44, {1-[2-(3-Bromo-6-methoxy-quinolin-4-yl)-ethyl]-piperidin-4-yl}-(2,3-dihydro-[1,4]dioxino[2,3-c]pyridin-7-ylmethyl)-amine Dihydrochloride]",≤ 2 µg/mL
2,"COc1cc(F)c2ncc(Cl)c(CCN3CCC(NCc4ccc5c(n4)NC(=O)CS5)CC3)c2c1 [Example 160, 6-{[(1-{2-[3-chloro-8-fluoro-6-(methoxy)-4-quinolinyl]ethyl}-4-piperidinyl)amino]methyl}-2H-pyrido[3,2-b][1,4]thiazin-3(4H)-one]",≤ 2 µg/mL
3,"COc1ccc2ncc(Cl)c(C(CO)CN3CCC(NCc4ccc5c(n4)NC(=O)CS5)CC3)c2n1.Cl.Cl (stereo not drawn) [Example 105, 6-{[(1-{2-[3-chloro-6-(methoxy)-1,5-naphthyridin-4-yl]-3-hydroxypropyl}-4-piperidinyl)amino]methyl}-2H-pyrido[3,2-b][1,4]thiazin-3(4H)-one dihydrochloride]",≤ 2 µg/mL
4,"COc1cc(F)c2ncc(F)c(CCN3CCC(NCc4cc5c(cn4)OCO5)CC3)c2c1.Cl.Cl [Example 51, 1-{2-[3,8-difluoro-6-(methoxy)-4-quinolinyl]ethyl}-N-([1,3]dioxolo[4,5-c]pyridin-6-ylmethyl)-4-piperidinamine dihydrochloride]",≤ 2 µg/mL
5,"Cl.Cl.O=C1CSc2ccc(CNC3CCN(CCc4c(F)cnc5ccc(F)cc45)CC3)nc2N1 [Example 106, 6-[({1-[2-(3,6-difluoro-4-quinolinyl)ethyl]-4-piperidinyl}amino)methyl]-2H-pyrido[3,2-b][1,4]thiazin-3(4H)-one dihydrochloride]",≤ 2 µg/mL
6,"COc1cc(F)c2ncc(F)c(CCN3CC[C@H](NCc4cc5c(cn4)OCCO5)[C@H](F)C3)c2c1.Cl.Cl (single isomer, unassigned; enantiomer 2) [Example 144, cis-1-{2-[3,8-difluoro-6-(methoxy)-4-quinolinyl]ethyl}-N-(2,3-dihydro[1,4]dioxino[2,3-c]pyridin-7-ylmethyl)-3-fluoro-4-piperidinamine dihydrochloride Enantiomer 2]",≤ 2 µg/mL
7,"COc1cc(F)c2ncc(F)c(CCN3CC[C@H](NCc4ccc5c(n4)NC(=O)CO5)[C@H](O)C3)c2c1.Cl.Cl [Example 75, 6-{[((3R,4S)-1-{2-[3,8-difluoro-6-(methoxy)-4-quinolinyl]ethyl}-3-hydroxy-4-piperidinyl)amino]methyl}-2H-pyrido[3,2-b][1,4]oxazin-3(4H)-one dihydrochloride]",≤ 2 µg/mL
8,"COc1cc(F)c2ncc(Cl)c(CCN3CC[C@H](NCc4cc5c(cn4)OCCO5)[C@H](O)C3)c2c1.Cl.Cl [Example 98, (3R,4S)-1-{2-[3-chloro-8-fluoro-6-(methoxy)-4-quinolinyl]ethyl}-4-[(2,3-dihydro[1,4]dioxino[2,3-c]pyridin-7-ylmethyl)amino]-3-piperidinol dihydrochloride]",≤ 2 µg/mL
9,"COc1ccc2ncc(F)c(CCN3CCC(NCc4cc5c(cn4)OCS5)CC3)c2n1.Cl.Cl [Example 61, 1-{2-[3-Fluoro-6-(methoxy)-1,5-naphthyridin-4-yl]ethyl}-N-([1,3]oxathiolo[5,4-c]pyridin-6-ylmethyl)-4-piperidinamine dihydrochloride]",≤ 2 µg/mL
